{"source": "patent US20260055375A1", "about": "“CULTURE METHOD” (Babraham Institute, priority 2023, published 2026)", "key": {"[1]": {"tested_on": "endometrial stromal cells", "test": "Morphometric analysis of stromal cells in hormone-stimulated endometrium assembloid", "assay_type": "cell-based, human", "experimental": "(§1) Hormone stimulation scheme aimed to recapitulate the mid-secretory phase of human endometrial cycle when receptive phenotype optimal for embryo implantation, known as window of implantation, is acquired. For this purpose, β-oestradiol (E2) stimulation was started in upper and lower compartments for 4 days to simulate the proliferative phase of human endometrial cycle. A total volume of 300 μL of organoid media supplemented by 2% charcoal stripped FBS (Sigma Aldrich, F6765) and 10 nM of β-oestradiol (E2, Sigma E4389) was added to the top compartment of the transwell culture system. A total volume of 1 mL of hEnSC medium supplemented by 2% charcoal stripped FBS (Sigma Aldrich, F6765) and 10 nM of β-oestradiol (E2, Sigma E4389) was added to the lower compartment. Media were changed each 2 days. After 4 days, upper and lower compartments were stimulated with full hormone mixture containing E2, progesterone (P4) and 8-bromoadenosine 3′,5′-cyclic monophosphate (CAMP) for 8 days. A total volume of 300 μL of organoid media supplemented by 2% charcoal stripped FBS (Sigma Aldrich, F6765), 10 nM of E2 (Sigma E4389), 1 μM of P4 (Sigma P7556) and 1 μM of cAMP (Sigma, B7880) was added to the top compartment of the transwell culture system. A total volume of 1 mL of hEnSC medium supplemented by 2% charcoal stripped FBS (Sigma Aldrich, F6765) and […] (Sigma E4389), 1 μM of P4 (Sigma P7556) and […] (Sigma, B7880) was added to the lower compartment. Media were changed each 2 days.\n(§2) Morphometric analyses were performed on stromal and epithelial compartments on proliferative phase (after 4 days of E2 stimulation) and secretory phase (after 8 days of stimulation with E2, P4 and cAMP).\nCell segmentation and cell morphometric analyses were performed from confocal microscopy images of stromal and epithelial compartment. […]\nStromal length (μm) and width (μm) were acquired for each cell using the line tool from Fiji. […] In this case, only line measurements (in μm) corresponding to length and width of each stromal cell were recorded to calculate length/width ratio. […]"}, "[2]": {"tested_on": "epithelial endometrial cells", "test": "Morphometric analysis of surface epithelial cells in hormone-stimulated endometrium assembloid", "assay_type": "cell-based, human", "experimental": "as §1, §2\nCell segmentation and cell morphometric analyses were performed from confocal microscopy images of stromal and epithelial compartment. Vimentin and cytokeratin-7 were used as stromal and epithelial markers, respectively, to determine stromal and epithelial compartment. Phalloidin signal was used to perform cell segmentation of stromal and epithelial compartments. Cell segmentation was done in an intermediate field of the whole Z-stack, choosing a relatively flat area to maximize the accuracy of the segmentation using Fiji (https://imagej.net/software/fiji/).\nEpithelial cells were segmented manually using polygon selection tool from Fiji. Cell contour was drawn with multiple points to accurately fit perimeter of each cell segmented. Fit spline option (“Edit”>“Selection”>“Fit spline”) was used in all cases to smooth cell contour and maximize the match of manual cell segmentation with cell perimeter. Each Region Of Interest (ROI) corresponding to each epithelial cell segmented was added to ROI manager (“Analyse”>“Tools” >“ROI manager”).\nOnce acquired all ROI, the following measurements were set (“Analyse”>“Set Measurements”): area (μm^2), perimeter (μm), and shape descriptors roundness, circularity, aspect ratio, and solidity. Roundness ((4·area)/(π·major axis^2)) ranges from 0 to 1 indicating elongated or circle-like shape. Circularity (4π·area/perimeter^2) ranges from 0 to 1 and correlates with shape roughness. Aspect ratio is defined as the ratio between major and minor axis of the best fit ellipse. Solidity, defined as a ratio between area and convex area, ranges from 0 to 1, describing a concave or convex shape."}, "[3]": {"settings": "stromal cells, proliferative (E2 4 days) vs secretory (E2, P4 and cAMP 8 days)"}}}
{"smiles": "C[C@]12CC[C@@H]3c4ccc(O)cc4CC[C@H]3[C@@H]1CC[C@@H]2O", "note": "[E2, β-oestradiol]", "values": [{"measurement": "length/width ratio (median)", "setting": "[1]; stromal cells in 3D, proliferative phase = E2 4 days, secretory phase = E2, P4 and cAMP 8 days", "result": 9.14}, {"measurement": "cell length (median)", "setting": "[1]; [3]", "result": 105.4, "unit": "μm"}, {"measurement": "cell width (median)", "setting": "[1]; [3]", "result": 11.39, "unit": "μm"}, {"measurement": "surface area (median)", "setting": "[2]; proliferative (E2 4 days) vs secretory (E2, P4 and cAMP 8 days)", "result": 75.67, "unit": "μm^2"}, {"measurement": "aspect ratio (AR) (median)", "setting": "[2]; proliferative vs secretory", "result": 1.584}, {"measurement": "cell perimeters (median)", "setting": "[2]; proliferative vs secretory", "result": 34.61, "unit": "μm"}, {"measurement": "cell roundness (median)", "setting": "[2]; proliferative vs secretory", "result": 0.6315}, {"measurement": "circularity (median)", "setting": "[2]; proliferative vs secretory", "result": 0.7920}, {"measurement": "solidity (median)", "setting": "[2]; proliferative vs secretory", "result": 0.9820}]}
